The results in this text go back to patent US20050009924A1 (priority 2003, published 2005).

A short description of data set [1]: MTT relative viability, PCMV-SEAP (hTERT-BJ1) cells. Particulars: human, stable PCMV-SEAP reporter clone. The class given is cell-based. The source says: Culture media were changed every 3 days. […] The stable clones were selected using G418.
Data set [2] is described as follows: MTT relative viability, PhTERT-SEAP (hTERT-BJ1) cells. The settings on record: human.
Method: (§2) The tetrazolium reagent (MTT; 3-(4,5-di-methylthiazol)-2,5-diphenyl tetrazolium bromide, USB) was designed to yield a colored formazan upon metabolic reduction by viable cells. Approximately […] cells were plated onto each well of a 96-well plate and incubated in 5% CO2 at 37° C. for 24 h. To assess the in vitro cytotoxicity, each compound was dissolved in DMSO and prepared immediately before the experiments and was diluted into the complete medium before addition to cell cultures. Test compounds were then added to the culture medium for designated various concentrations. After 48 h, an amount of 25 μL of MTT was added to each well, and the samples were incubated at 37° C. for 4 h. A 100 μL solution of lysis buffer containing 20% SDS and 50% N,N-dimethylformamide was added to each well and incubated at 37° C. for another 16 h. The absorbency at 550 nm was measured using an ELISA reader.
(§3) Non small lung cancer cells H1299 (telomerase positive) were grown in RPMI 1640 media supplemented with 10% fetal bovine serum, 100 units/mL penicillin and 100 mg/mL streptomycin in a humidified atmosphere with 5% CO2 at 37° C. The hTERT immortalized hTERT-BJ1 (BD Biosciences Clontech)^39 were grown in DMEM media supplemented with 10% fetal calf serum, 100 units/mL penicillin and 100 mg/mL streptomycin, 1 mM sodium pyruvate, and 4 mM I-arginine in a humidified atmosphere with 5% CO2 at 37° C. Culture media were changed every 3 days. […] The stable clones derived from H1299 or hTERT-BJ1 were cultured using conditions that are similar to their parental cells.
The nature of data set [3]: MTT relative viability, PhTERT-SEAP (H1299) cells. Particulars: human.
The test system of a further data set is CMV promoter. The data set is described as follows: SEAP reporter assay of CMV promoter activity, PCMV-SEAP (hTERT-BJ1). The class given is cell-based. Particulars: Homo sapiens, read-out: Relative SEAP activity (%). (In general: A reporter such as luciferase makes a cellular process visible.)
In a further data set the test system is rat glioma C6 cells. The data set is described as follows: Cytotoxicity assay (XTT colorimetric), C6 cells. Particulars: 48 h of drug exposure. The class given is cell-based. On the technique in general: Formazan colour is commonly taken as a measure of viable cells.
The subject of the next data set is human hepatoma G2 cells. The data set is described as follows: Cytotoxicity assay (XTT colorimetric), Hep G2. The class given is cell-based. The settings on record: 48 h of drug exposure.
Data set [4] has as its system transcriptional activity of hTERT. The data set is described as follows: SEAP reporter assay of hTERT expression, PhTERT-SEAP (H1299). The class given is cell-based, human. The settings on record: for Relative SEAP activity (%): hTERT-H1299. An outline of the steps:
(§1)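 We treated G418-selected reporter cells with varying drug amounts for 24 h and measured SEAP in the heat-inactivated medium as the rate of 405 nm absorbance increase.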

The test system of data set [5] is iron-induced lipid peroxidation in rat brain homogenates. The data set is described as follows: Iron-induced lipid peroxidation in rat brain homogenates. Particulars: 10 mM; for LP (%) (10 mM): relative percentage of inhibition (Table 1).
For data set [6], the system named is transcriptional activity of hTERT. The data set is described as follows: SEAP reporter assay of hTERT expression, PhTERT-SEAP (hTERT-BJ1). The settings on record: hTERT-BJ1. The class given is cell-based, human. An outline of the steps: as §1
Data set [7] concerns hepatitis B virus transfected hepatoma cell lines, HepG 2.2.15 cells. The data set is described as follows: Cytotoxicity assay, 2.2.15 cells. The settings on record: 48 h of drug exposure. The class given is cell-based, human.
Data set [8] deals with non-small-cell lung cancer cells H1299.
Setting [9] is: Homo sapiens, NCI-H1299, H1299, read-out: Relative SEAP activity (%).
The mark [10] stands for this setting: Homo sapiens, read-out: Relative SEAP activity (%).

Structures are written as SMILES. Read-outs that look alike come from different tables or passages of the source.

Method for hTERT-BJ1 cells: as §2, §3

Usually viability stands for a read-out of living cells in per cent, often relative to untreated cells. As usually defined, the IC50 is the concentration at which inhibition is half-maximal. The low end stands for greater potency, the high end for weaker potency. By melting point is commonly meant the temperature of the solid-liquid transition. Compound `CC(C)(C)C(=O)Oc1cccc2c1C(=O)c1cccc(OC(=O)C(C)(C)C)c1C2=O` [IIId, 1,5-Bis(pivaloyloxy)-anthraquinone] had a melting point of 166 to 167 °C. In addition, the viability at 48 h, 2.4 µM in data set [1] (2.4 μM) is 115 ± 7%. The viability at 48 h, 24 µM in data set [1] (24 μM) came to 104 ± 8%. Further, in data set [1] (240 μM), the viability at 48 h, 240 µM came to 103 ± 11%. In data set [2], the viability at 48 h, 2.4 µM was found to be 94 ± 3.4%; the viability at 48 h, 24 µM is 93 ± 6%; the viability at 48 h, 240 µM worked out at 100 ± 9%. For the same compound, in data set [3], the viability at 48 h, 2.4 µM stood at 106 ± 8.9%; the viability at 48 h, 24 µM was 97 ± 7.1%; the viability at 48 h, 240 µM is 70 ± 5.2%. The activity at 2.4 µM with CMV promoter (2.4 μM) is 102 ± 10%. For the same compound, the activity at 24 µM with CMV promoter (24 μM) came out at 114 ± 18%. Besides, the activity at 240 µM in the data set on CMV promoter (240 μM) came to 141 ± 11%. In addition, the half-inhibitory concentration (IC50) with rat glioma C6 cells (Rattus norvegicus, C6) was determined as 12 ± 1.5 µM. Further, the IC50 in the data set with human hepatoma G2 cells (Homo sapiens, HepG2) turned out to be 13.7 ± 1.8 µM. The activity at 2.4 µM in data set [4] (Homo sapiens, NCI-H1299, 2.4 μM, H1299, read-out: Relative SEAP activity (%)) is 105 ± 4.9%. Besides, in data set [4] (Homo sapiens, NCI-H1299, 24 μM, H1299, read-out: Relative SEAP activity (%)), the activity at 24 µM was 78 ± 14.8%. The activity at 240 µM in data set [4] (Homo sapiens, NCI-H1299, 240 μM, H1299, read-out: Relative SEAP activity (%)) was 80 ± 10.1%. Also, the “Inhibition of LP(10 mM)” value in data set [5] (mean percent inhibition (Table 3)) is −23 ± 1.1^ %. The activity at 2.4 µM in [6] (Homo sapiens, 2.4 μM, read-out: Relative SEAP activity (%)) turned out to be 147 ± 11.1%. Further, the activity at 24 µM in data set [6] (Homo sapiens, 24 μM, read-out: Relative SEAP activity (%)) amounted to 165 ± 18.7%. Further, the activity at 240 µM in [6] (Homo sapiens, 240 μM, read-out: Relative SEAP activity (%)) was 141 ± 14.4%.
Consider `Nc1ccccc1Sc1cccc2c1C(=O)c1cccc(Sc3ccccc3N)c1C2=O` [IIf, 1,5-Bis(o-aminophenylthio)-Anthraquinone], for which the melting point fell in the range of 283 to 284 °C. Besides, in [1] (2.2 μM), the viability at 48 h, 2.2 µM stood at 108 ± 9%. Also, in data set [1], the viability at 48 h, 22 µM stood at 109 ± 4% and the viability at 48 h, 220 µM was determined as 48 ± 6%. For the same compound, in data set [2], the viability at 48 h, 2.2 µM was determined as 103 ± 7.9%; the viability at 48 h, 22 µM was 107 ± 5.5%; the viability at 48 h, 220 µM came to 25 ± 3.3%. In data set [3], the viability at 48 h, 2.2 µM amounted to 94 ± 3.5%; the viability at 48 h, 22 µM amounted to 50 ± 3.3%; the viability at 48 h, 220 µM was determined as 14 ± 2.5%. The activity at 2.2 µM in the data set on CMV promoter (2.2 μM) was determined as 103 ± 8%. Besides, in the data set with CMV promoter, the activity at 22 µM stood at 102 ± 10% and the activity at 220 µM turned out to be 122 ± 8%. In the data set with rat glioma C6 cells (Rattus norvegicus, C6), this compound registered a 50% inhibitory concentration (IC50) of 15.1 ± 1.7 µM. In the data set with human hepatoma G2 cells (Homo sapiens, HepG2), this compound showed an IC50 of 34 ± 1.7 µM. In data set [4] (setting [9]), the activity at 2.2 µM was determined as 108 ± 12.2%, the activity at 22 µM turned out to be 96 ± 8.4% and the activity at 220 µM turned out to be 59 ± 6.6%. Also, the “LP (%) (10 mM)” value in data set [5] was found to be 5 ± 0.5%. In data set [6] (setting [10]), the activity at 2.2 µM worked out at 136 ± 17.5%, the activity at 22 µM was 141 ± 18.2% and the activity at 220 µM came to 115 ± 29.7%.
On to `COc1ccc(CSc2cccc3c2C(=O)c2cccc(SCc4ccc(OC)cc4)c2C3=O)cc1` [IIj, 1,5-Bis(p-methoxybenzylthio)-Anthraquinone], for which the melting point was 297 to 299 °C. Besides, in data set [1] (2.0 μM), the viability at 48 h, 2 µM came out at 116 ± 13%. For the same compound, in data set [1], the viability at 48 h, 22 µM was found to be 67 ± 18% and the viability at 48 h, 220 µM stood at 52 ± 7%. In data set [2], the viability at 48 h, 2.2 µM was 119 ± 9.4%; the viability at 48 h, 22 µM turned out to be 98 ± 13.4%; the viability at 48 h, 220 µM stood at 62 ± 6.4%. In addition, in data set [3], the viability at 48 h, 2.2 µM was 89 ± 6.1%; the viability at 48 h, 22 µM was found to be 59 ± 5.4%; the viability at 48 h, 220 µM is 42 ± 0.3%. Moreover, the activity at 2 µM in the data set on CMV promoter (2.0 μM) amounted to 103 ± 15%. For the same compound, in the data set with CMV promoter, the activity at 22 µM worked out at 102 ± 8% and the activity at 220 µM is 100 ± 8%. Moreover, in the data set on rat glioma C6 cells (Rattus norvegicus, C6), half-maximal inhibition (IC50) was put at 25.1 ± 2.8 µM. In the data set on human hepatoma G2 cells (Homo sapiens, HepG2), the IC50 is 28.6 ± 1.2 µM. Further, in data set [4] (setting [9]), the activity at 2.2 µM is 92 ± 3.3%, the activity at 22 µM amounted to 96 ± 8.5% and the activity at 220 µM turned out to be 88 ± 5.6%. The “LP (%) (10 mM)” value in [5] was 67 ± 2.9%. In data set [6] (setting [10]), the activity at 2.2 µM amounted to 142 ± 27.7%, the activity at 22 µM is 141 ± 22.6% and the activity at 220 µM was found to be 118 ± 19.2%.
On to `O=C1c2cccc(NCCO)c2C(=O)c2cccc(NCCO)c21` [IVb, 1,5-Bis(ethanolamino)anthraquinone], for which the half-maximal inhibitory concentration (IC50) in data set [7] is 19.3 µM; in the data set with rat glioma C6 cells it was over 20 µM; in the data set on human hepatoma G2 cells it was over 20 µM. In addition, the “Relative SEAP activity (%)” value in [4] (3.0 μM) is reported as 91 ± 3.9%; in [4] (30 μM), 88 ± 4.5%; in [4] (308 μM) it was 5.7 ± 1.1%; in data set [6] (3.0 μM), 45 ± 20.6%; in data set [6] (30 μM), 16 ± 13.1%; in data set [6] (308 μM), 11 ± 11.6%. Also, the “Relative MTT viability (%)” value is recorded as 105 ± 6.3% in data set [8] (3 µM); 88 ± 9.1% in [8] (30 µM); 53 ± 2.8% in [8] (308 µM); 116 ± 5.6% with hTERT-BJ1 cells (3 µM); 90 ± 26.9% with hTERT-BJ1 cells (30 µM); 69 ± 18.7% in the data set on hTERT-BJ1 cells (308 µM).
As for `O=C1c2cccc(NCCNCCO)c2C(=O)c2cccc(NCCNCCO)c21` [IVe, 1,5-Bis[2-(2-Aminoethylamino)ethanol]anthraquinone], the IC50 in data set [7] was 8.35 µM; with rat glioma C6 cells, 1.17 µM; with human hepatoma G2 cells, 1.2 ± 0.02 µM. Also, the “Relative SEAP activity (%)” value is recorded as 87 ± 3.8% in [4] (2.4 μM); 43 ± 5.5% in data set [4] (24 μM); 40 ± 6.7% in data set [4] (242 μM); 60 ± 11.6% in [6] (2.4 μM); 40 ± 17.3% in [6] (24 μM); 52 ± 19.1% in data set [6] (242 μM). For the same compound, the “Relative MTT viability (%)” value is 97 ± 8.7% in [8] (2.4 µM); 37 ± 3.9% in [8] (24 µM); 11 ± 4.1% in data set [8] (242 µM); 84 ± 19.8% with hTERT-BJ1 cells (2.4 µM); 60 ± 11.2% with hTERT-BJ1 cells (24 µM); 44 ± 12.9% in the data set with hTERT-BJ1 cells (242 µM).
As for `O=C1c2cccc(NCCCO)c2C(=O)c2cccc(NCCCO)c21` [IVh, 1,5-Bis(propanolamino)anthraquinone], the IC50 (in data set [7]; in the data set on rat glioma C6 cells; with human hepatoma G2 cells) was over 20 µM throughout. Besides, the “Relative SEAP activity (%)” value in data set [4] (2.8 μM) is 88 ± 4.9%; in data set [4] (28 μM), 69 ± 5.4%; in data set [4] (282 μM), 33 ± 2.2%; in data set [6] (2.8 μM), 41 ± 12.5%; in data set [6] (28 μM) it was 0 ± 22.1%; in [6] (282 μM), “(−3) ± 10.0^ %”. In addition, the “Relative MTT viability (%)” value came out at 107 ± 5.0% in [8] (2.8 µM); 49 ± 3.5% in [8] (28 µM); 40 ± 10.4% in data set [8] (282 µM); 72 ± 7.4% with hTERT-BJ1 cells (2.8 µM); 39 ± 10.5% in the data set on hTERT-BJ1 cells (28 µM); 26 ± 15.9% in the data set on hTERT-BJ1 cells (282 µM).
